Assay [1] deals with L4 stage larvae of Dirofilaria immitis. Briefly: Motility of L4 stage Dirofilaria immitis larvae, 3 days, dose response. Format: cell-based. Conditions: 72 h, read-out: EC50, motility of L4 stage D. immitis, three days at 37° C., 5% CO2, vs DMSO control.
The subject of assay [2] is Haemonchus contortus L1 larvae. Briefly: Haemonchus contortus larval development L1 to L3, 4 days, dose response. The settings on record: 96 h, read-out: EC50, development of H. contortus larvae from L1 to L3.
Text: Biological Example 2: Screening Method to Test Activity of Compounds Against Haemonchus contortus
Assay [3] relates to Microfilaria of Dirofilaria immitis. The assay is described as follows: Motility of Dirofilaria immitis microfilariae in microtiter plate, 3 days, dose response. Format: cell-based. Conditions: 72 h, read-out: EC50, motility of D. immitis microfilaria, three days at 37° C., 5% CO2, vs DMSO control.

`Cc1cc2c(C(C)(C)C)c(C(=O)N[C@H]3CCOc4ccccc43)cnn2c1N1CCCCC1` [Compound A524, 4-tert-butyl-N-[(4S)-3,4-dihydro-2H-1-benzopyran-4-yl]-6-methyl-7-(piperidin-1-yl)pyrrolo[1,2-b]pyridazine-3-carboxamide]: the EC50 in assay [1], in assay [2] and in assay [3] was 0.1 to 1 µM throughout.

For `Cc1cc2c(C(C)(C)C)c(C(=O)N[C@H]3CCOc4ncsc43)cnn2c1-c1cc(F)cc(Cl)c1Cl` [Compound A551], the EC50 in assay [1], in assay [2] and in assay [3] was 0.01 to 0.1 µM throughout.

In the case of `CN(C)c1c(C(=O)N[C@H]2CCOc3ccccc32)cnn2c(-c3cc(Cl)cc(Cl)c3Cl)c(Cl)cc12` [Compound A473], the EC50 in assay [1] was below 0.01 µM; in assay [2], below 0.01 µM; in assay [3], 0.01 to 0.1 µM.

On to `Cc1cc2c(C(C)(C)C)c(C(=O)NN3CCOc4ccccc43)cnn2c1-c1cc(F)cc(Cl)c1Cl` [Compound A495], for which the EC50 in assay [1], in assay [2] and in assay [3] was below 0.01 µM in each case.

With `CN(C)c1c(C(=O)N[C@H]2CCOc3ccccc32)cnn2c(-c3cc(F)cc(Cl)c3Cl)c(Cl)cc12` [Compound A478], the figures for the concentration for a half-maximal effect (EC50) in assay [1], in assay [2] and in assay [3] were 0.1 to 1 µM, 0.01 to 0.1 µM and 0.01 to 0.1 µM, respectively.

Turning to `Cc1cc2c(C(C)(C)C)c(C(=O)N[C@H]3CCOc4ccccc43)cnn2c1N1CCC(F)(F)CC1` [Compound A527], the EC50 lay within 0.01 to 0.1 µM in assay [1], 0.1 to 1 µM in assay [2] and 0.1 to 1 µM in assay [3].

For `CC(C)(C)c1c(C(=O)NN2CCOc3ccccc32)cnn2c(-c3cc(F)cc(Cl)c3Cl)c(Cl)cc12` [Compound A494], the 50% effective concentration (EC50) in assay [1] was below 0.01 µM; in assay [2] it was 0.01 to 0.1 µM; in assay [3], 0.01 to 0.1 µM.

On to `CC(C)c1c(C(=O)N[C@H]2CCOc3ccccc32)cnn2c(-c3cc(Cl)cc(Cl)c3)c(Cl)cc12` [Compound A463], for which the EC50 in assay [1] is 0.01 to 0.1 µM; in assay [2], 0.01 to 0.1 µM; in assay [3], below 0.01 µM.

Turning to `CC(C)(C)c1c(C(=O)N[C@H]2CCOc3ccccc32)cnn2c(-c3cc(Cl)cc(Cl)c3)c(Cl)cc12` [Compound A477], the EC50 is below 0.01 µM in assay [1], 0.01 to 0.1 µM in assay [2] and below 0.01 µM in assay [3].

Regarding `Cc1cc2c(N3CC(C)(C)C3)c(C(=O)N[C@H]3CCOc4ccccc43)cnn2c1-c1cc(Cl)cc(Cl)c1Cl` [Compound A563], the EC50 in assay [1], in assay [2] and in assay [3] was 1 to 10 µM in each case.

With `Cc1cc2c(C(C)(C)C)c(C(=O)N[C@H]3CCOc4scnc43)cnn2c1-c1cc(F)cc(Cl)c1Cl` [Compound A550], the half-maximal effective concentration (EC50) in assay [1], in assay [2] and in assay [3] was 0.01 to 0.1 µM each time.

`CC(C)(C)c1c(C(=O)N[C@H]2CCOc3ccccc32)cnn2c(-c3c(F)cc(F)cc3F)c(Cl)cc12` [Compound A484]: the EC50 in assay [1], in assay [2] and in assay [3] was below 0.01 µM each time.

With `CC(C)(C)c1c(C(=O)N[C@H]2CCOc3ccccc32)cnn2c(-c3cc(F)cc(F)c3F)c(Cl)cc12` [Compound A486], the EC50 in assay [1], in assay [2] and in assay [3] was below 0.01 µM throughout.

Turning to `Cc1cc2c(N3CC(F)(F)C3)c(C(=O)N[C@H]3CCOc4ccccc43)cnn2c1-c1cc(Cl)cc(Cl)c1Cl` [Compound A505], the EC50 in assay [1] is below 0.01 µM; in assay [2], 0.01 to 0.1 µM; in assay [3] it was below 0.01 µM.

In the case of `Cc1cc2c(C(C)(C)C)c(C(=O)N[C@H]3CCOc4ccccc43)cnn2c1-c1c(F)cc(F)cc1F` [Compound A476], the EC50 in assay [1] was below 0.01 µM; in assay [2] it was 0.01 to 0.1 µM; in assay [3], 0.01 to 0.1 µM.

For the compound `CN(C)c1c(C(=O)N[C@H]2CCOc3ccccc32)cnn2c(-c3cc(F)cc(F)c3F)c(Cl)cc12` [Compound A474], the results for the EC50 in assay [1], in assay [2] and in assay [3] were below 0.01 µM, 0.01 to 0.1 µM and below 0.01 µM, respectively.

The values are drawn from US11999742B2, “Substituted pyrrolo[1,2-b]pyridazines as anthelmintics” (BOEHRINGER INGELHEIM VETMEDICA GMBH, priority 2021, dated 2024).
